Data: patent publication US20130109682A1, “CYCLIC ETHER COMPOUNDS USEFUL AS KINASE INHIBITORS” (NOVARTIS AG, priority 2010, published 2013)

Columns and labels:
[1] = biological target: PIM3 (Homo sapiens, UniProt Q86V86); assay: KinaseGlo Pim3 ATP depletion assay; format: biochemical
Procedure, shortened: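 Residual ATP was detected by luciferase luminescence once about half had been consumed. The reaction contained 5 nM enzyme, 100 μM BAD peptide (RSRHSSYPAGT) and 40 μM ATP in 50 mM HEPES pH 7.5, 5 mM MgCl2, 1 mM DTT and 0.05% BSA with 2.5% DMSO. Compound and enzyme/peptide were premixed 15 min before ATP.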

[2] = tested on: KMS11 (human myeloma cell line); assay: Cell proliferation assay (CellTiter-Glo), KMS11; format: cell-based; conditions: Homo sapiens, KMS-11; KMS11-Luc cells
Procedure, shortened: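 EC50 derived from CellTiter-Glo luminescence after 3-day exposure at 37° C. Compound was diluted to 2× in medium and added to an equal volume of cells. KMS11 myeloma cells were plated on assay day at 2000/well in IMDM with 10% FBS and sodium pyruvate.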

[3] = biological target: GSK3β (Homo sapiens, UniProt P49841); assay: GSK3β ATP depletion assay; format: biochemical; conditions: read-out: GSK3b IC50
Procedure, shortened: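 Kinase activity is read as ATP consumption: luciferase luminescence reports the ATP remaining once roughly half of the 2 μM ATP is used. Reaction mix: 5 nM GSK3β, 10 μM b-CREB peptide, 50 mM Tris pH 7.5, 15 mM MgCl2, 1 mM DTT, 0.1% BSA, 2.5% DMSO. Enzyme and peptide are preincubated 15 min before ATP is added.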

[4] = biological target: PIM2 (Homo sapiens, UniProt Q9P1W9); assay: KinaseGlo Pim2 ATP depletion assay; format: biochemical
Procedure, shortened: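 Compound sat 15 min with enzyme and BAD peptide before ATP was added; final levels 5 nM PIM2, 10 μM peptide, 4 μM ATP, 2.5% DMSO, pH 7.5 HEPES buffer with MgCl2, DTT, BSA. Stopped near 50% ATP consumption; remaining ATP measured by luciferase luminescence.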

[5] = biological target: PIM1 (Homo sapiens, UniProt P11309); assay: KinaseGlo Pim1 ATP depletion assay; format: biochemical
Procedure, shortened: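 IC50 is derived from residual ATP measured by KinaseGlo Plus luminescence once about half the ATP was consumed. Final conditions were 20 μM ATP, 40 μM BAD peptide and 2.5 nM kinase in HEPES pH 7.5 buffer with MgCl2, DTT and BSA, plus 2.5% DMSO. Compound and enzyme were premixed 15 min before ATP addition.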

GSK3β, sequence (P49841 whole entry, species assumed): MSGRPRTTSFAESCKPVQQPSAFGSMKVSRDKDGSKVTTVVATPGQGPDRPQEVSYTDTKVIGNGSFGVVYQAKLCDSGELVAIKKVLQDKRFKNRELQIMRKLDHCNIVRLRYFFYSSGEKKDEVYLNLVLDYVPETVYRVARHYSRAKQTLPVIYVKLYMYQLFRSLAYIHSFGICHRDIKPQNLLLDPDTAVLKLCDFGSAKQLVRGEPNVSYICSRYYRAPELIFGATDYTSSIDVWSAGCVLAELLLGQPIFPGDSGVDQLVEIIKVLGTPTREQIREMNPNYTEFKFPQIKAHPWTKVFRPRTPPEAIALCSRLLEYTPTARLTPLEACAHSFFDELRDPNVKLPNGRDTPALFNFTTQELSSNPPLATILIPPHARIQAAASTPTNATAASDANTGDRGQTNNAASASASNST
PIM2, sequence (Q9P1W9 whole entry): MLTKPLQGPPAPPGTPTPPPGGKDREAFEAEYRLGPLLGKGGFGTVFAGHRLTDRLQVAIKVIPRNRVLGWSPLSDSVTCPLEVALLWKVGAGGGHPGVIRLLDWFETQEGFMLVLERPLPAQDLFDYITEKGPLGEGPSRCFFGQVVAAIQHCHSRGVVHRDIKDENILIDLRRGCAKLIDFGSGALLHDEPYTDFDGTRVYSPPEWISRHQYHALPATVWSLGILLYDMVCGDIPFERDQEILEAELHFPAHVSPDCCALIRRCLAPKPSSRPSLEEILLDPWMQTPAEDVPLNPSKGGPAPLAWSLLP
PIM1, sequence (P11309 whole entry): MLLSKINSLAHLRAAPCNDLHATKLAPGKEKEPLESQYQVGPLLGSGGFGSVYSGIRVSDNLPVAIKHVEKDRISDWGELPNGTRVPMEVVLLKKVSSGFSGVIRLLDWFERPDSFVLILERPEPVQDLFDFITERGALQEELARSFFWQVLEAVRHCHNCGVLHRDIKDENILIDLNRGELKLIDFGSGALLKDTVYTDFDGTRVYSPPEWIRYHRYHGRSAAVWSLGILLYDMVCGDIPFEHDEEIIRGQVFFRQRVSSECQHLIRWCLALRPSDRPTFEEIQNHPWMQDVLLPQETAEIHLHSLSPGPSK

SMILES | IC50 [1] [nM] | EC50 [2] [nM] | IC50 [3] [nM] | IC50 [4] [nM] | IC50 [5] [nM]
CC[C@H]1O[C@@H](c2ccncc2NC(=O)c2nc(-c3c(F)cccc3F)sc2N)C[C@@H](O)[C@@H]1O [Example 40, 5-amino-2-(2,6-difluorophenyl)-N-(4-((2R,4R,5S,6R)-6-ethyl-4,5-dihydroxytetrahydro-2H-pyran-2-yl)pyridin-3-yl)thiazole-4-carboxamide] | 2 | 600 | 2 | 2 | 1
CC[C@H]1O[C@@H](c2ccncc2NC(=O)c2nc(-c3ccccc3F)c(F)cc2N)C[C@@H](O)[C@@H]1O [Example 42, 3-amino-N-(4-((2R,4R,5S,6R)-6-ethyl-4,5-dihydroxytetrahydro-2H-pyran-2-yl)pyridin-3-yl)-5-fluoro-6-(2-fluorophenyl)picolinamide] | 1 | 9600 | 23 | 3 | 1
C=C[C@H]1OC(c2ccncc2NC(=O)c2ccc(F)c(-c3c(F)cccc3F)n2)=C[C@@H](O)[C@@H]1O [Example 44, 6-(2,6-difluorophenyl)-N-(4-((2R,3S,4R)-3,4-dihydroxy-2-vinyl-3,4-dihydro-2H-pyran-6-yl)pyridin-3-yl)-5-fluoropicolinamide] | 1 | 900 | 339 | 1 | 1
O=C(Nc1cnccc1[C@H]1C[C@@H](O)CC2(CC2)O1)c1ccc(F)c(-c2c(F)cccc2F)n1 [Example 59, 6-(2,6-difluorophenyl)-5-fluoro-N-(4-((5R,7R)-7-hydroxy-4-oxaspiro[2.5]octan-5-yl)pyridin-3-yl)picolinamide] | 14 | > 10000 | 757 | 162 | 6
O=C(Nc1cnccc1[C@H]1C[C@@H](O)CC2(CC2)O1)c1csc(-c2c(F)cccc2F)n1 [Example 61, 2-(2,6-difluorophenyl)-N-(4-((5R,7R)-7-hydroxy-4-oxaspiro[2.5]octan-5-yl)pyridin-3-yl)thiazole-4-carboxamide] | 20 | > 10000 | 65 | 599 | 7
O=C(Nc1cnccc1[C@@H]1C[C@H](O)CC2(CC2)O1)c1csc(-c2c(F)cccc2F)n1 [Example 62, 2-(2,6-difluorophenyl)-N-(4-((5S,7S)-7-hydroxy-4-oxaspiro[2.5]octan-5-yl)pyridin-3-yl)thiazole-4-carboxamide] | 15 | > 10000 | 27 | 321 | 2
C[C@H]1O[C@@H](c2ccncc2NC(=O)c2ccc(F)c(-c3c(F)cccc3F)n2)[C@H](F)C(=O)[C@]1(C)O [Example 72, 6-(2,6-difluorophenyl)-5-fluoro-N-(4-((2S,3S,5R,6R)-3-fluoro-5-hydroxy-5,6-dimethyl-4-oxotetrahydro-2H-pyran-2-yl)pyridin-3-yl)picolinamide] | 6 | 1500 | 385 | 15 | 1
O=C(Nc1cnccc1C1=C[C@@H](O)[C@H](O)[C@@H](CO)O1)c1ccc(F)c(-c2c(F)cccc2F)n1 [Example 79, 6-(2,6-difluorophenyl)-N-(4-((2R,3S,4R)-3,4-dihydroxy-2-(hydroxymethyl)-3,4-dihydro-2H-pyran-6-yl)pyridin-3-yl)-5-fluoropicolinamide] | 3 | > 10000 | 1450 | 17 | 2

Further lines, results first:

IC50 [1] [nM] | EC50 [2] [nM] | IC50 [3] [nM] | IC50 [4] [nM] | IC50 [5] [nM] | SMILES
7 | 9900 | 17 | 65 | 1 | CC[C@H]1O[C@@H](c2ccncc2NC(=O)c2csc(-c3c(F)cccc3F)n2)C[C@@H](O)[C@@H]1O [Example 41, 2-(2,6-difluorophenyl)-N-(4-((2R,4R,5S,6R)-6-ethyl-4,5-dihydroxytetrahydro-2H-pyran-2-yl)pyridin-3-yl)thiazole-4-carboxamide]
1 | 1700 | 188 | 1 | 1 | CC[C@H]1O[C@@H](c2ccncc2NC(=O)c2nc(-c3c(F)cccc3F)c(F)cc2N)C[C@@H](O)[C@@H]1O [Example 43, 3-amino-6-(2,6-difluorophenyl)-N-(4-((2R,4R,5S,6R)-6-ethyl-4,5-dihydroxytetrahydro-2H-pyran-2-yl)pyridin-3-yl)-5-fluoropicolinamide]
33 | > 10000 | 442 | 149 | 7 | N#CC[C@H]1O[C@@H](c2ccncc2NC(=O)c2ccc(F)c(-c3c(F)cccc3F)n2)CC[C@@H]1O [Example 46, N-(4-((2R,5S,6R)-6-(cyanomethyl)-5-hydroxytetrahydro-2H-pyran-2-yl)pyridin-3-yl)-6-(2,6-difluorophenyl)-5-fluoropicolinamide]
113 | > 10000 | 9180 | 356 | 58 | N#CC[C@H]1O[C@@H](c2ccncc2NC(=O)c2ccc(C#N)c(-c3c(F)cccc3F)n2)C[C@@H](O)[C@@H]1O [Example 47, 5-cyano-N-(4-((2R,4R,5S,6R)-6-(cyanomethyl)-4,5-dihydroxytetrahydro-2H-pyran-2-yl)pyridin-3-yl)-6-(2,6-difluorophenyl)picolinamide]
26 | 5500 | 911 | 101 | 2 | O=C(Nc1cnccc1[C@H]1C[C@H](Cl)[C@H](O)[C@@H](CCl)O1)c1ccc(F)c(-c2c(F)cccc2F)n1 [Example 55, N-(4-((2R,4S,5R,6S)-4-chloro-6-(chloromethyl)-5-hydroxytetrahydro-2H-pyran-2-yl)pyridin-3-yl)-6-(2,6-difluorophenyl)-5-fluoropicolinamide]
28 | 6100 | 2000 | 111 | 19 | COC[C@H]1O[C@@H](c2ccncc2NC(=O)c2ccc(F)c(-c3c(F)cccc3F)n2)C[C@@H](O)[C@@H]1O [Example 57, 6-(2,6-difluorophenyl)-N-(4-((2R,4R,5S,6R)-4,5-dihydroxy-6-(methoxymethyl)tetrahydro-2H-pyran-2-yl)pyridin-3-yl)-5-fluoropicolinamide]
200 | > 10000 | 3230 | 1110 | 10 | CC[C@@]1(O)[C@H](C)O[C@H](c2ccncc2NC(=O)c2ccc(F)c(-c3c(F)cccc3F)n2)C[C@@H]1O [Example 73, 6-(2,6-difluorophenyl)-N-(4-((2S,4S,5S,6S)-5-ethyl-4,5-dihydroxy-6-methyltetrahydro-2H-pyran-2-yl)pyridin-3-yl)-5-fluoropicolinamide]
2 | 2200 | 228 | 4 | 1 | CC[C@H]1O[C@@H](c2ccncc2NC(=O)c2ccc(F)c(-c3c(F)cccc3F)n2)C[C@@H](O)[C@@H]1O [Example 75, 6-(2,6-difluorophenyl)-N-(4-((2R,4R,5S,6R)-6-ethyl-4,5-dihydroxytetrahydro-2H-pyran-2-yl)pyridin-3-yl)-5-fluoropicolinamide]
151 | 1500 | 5820 | 2520 | 127 | O=C(Nc1cnccc1[C@@H]1C[C@@H](O)[C@H](O)[C@@H](CO)O1)c1ccc(F)c(-c2c(F)cccc2F)n1 [Example 78, 6-(2,6-difluorophenyl)-N-(4-((2S,4R,5S,6R)-4,5-dihydroxy-6-(hydroxymethyl)tetrahydro-2H-pyran-2-yl)pyridin-3-yl)-5-fluoropicolinamide]
171 | > 10000 | 1230 | 4920 | 44 | O=C(Nc1cnccc1[C@H]1C[C@@H](O)[C@H](O)[C@@H](CO)O1)c1csc(-c2c(F)cccc2F)n1 [Example 80, 2-(2,6-difluorophenyl)-N-(4-((2R,4R,5S,6R)-4,5-dihydroxy-6-(hydroxymethyl)tetrahydro-2H-pyran-2-yl)pyridin-3-yl)thiazole-4-carboxamide]
32 | > 10000 | 2800 | 291 | 19 | O=C(Nc1cnccc1[C@H]1C[C@@H](O)[C@H](O)[C@@H](CO)O1)c1ccc(F)c(-c2c(F)cccc2F)n1 [Example 83, 6-(2,6-difluorophenyl)-N-(4-((2R,4R,5S,6R)-4,5-dihydroxy-6-(hydroxymethyl)tetrahydro-2H-pyran-2-yl)pyridin-3-yl)-5-fluoropicolinamide]
